Here are results for 14 compounds from PubChem BioAssay (NCI).

Molecules are shown by their SMILES. Several values for one entry are separate records, joined by “and”; a condition that tells them apart may be missing. Equal values may be shown once.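 Five concentrations, 48 hours, 96-well plates. Here, GI50 denotes the concentration required for 50% inhibition of growth. TGI marks complete inhibition of growth.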

Experiment in all cases: NCI anticancer screen, dose series, 48 h
The test system of experiment [1] is CCRF-CEM leukemia.
Experiment [2] deals with SNB-75 CNS.
Experiment [3] concerns NCI-H23 lung.
In experiment [4] the test system is OVCAR-5 ovarian.
Experiment [5] concerns UACC-62 melanoma.
In experiment [6] the test system is U251 CNS.
Experiment [7] has as its system SK-MEL-28 melanoma.
Experiment [8] deals with UO-31 renal.
Experiment [9] has as its system LOX IMVI melanoma.
Experiment [10] deals with MOLT-4 leukemia.

Consider `CC1OC(O[C@@H]2C=C3CC[C@@H]4[C@H](CC[C@]5(C)[C@@H](c6ccc(=O)oc6)CC[C@]45O)[C@@]3(C)CC2)C(O)C(OC2OC(CO)C(O)C(O)C2O)C1O` (some centres not stated), for which the TGI was 0.133 µM in [1]; 0.0587 µM and 0.0407 µM in experiment [2]; 0.0236 µM in experiment [3]; 0.039 µM and 0.0523 µM in experiment [4]; 0.0263 µM in [5]; 0.0176 µM and 0.0352 µM in experiment [6]. In addition, the TGI in experiment [7] is 0.0867 µM; in experiment [8], 0.00316 µM and 0.0263 µM. Also, the GI50 was 0.000974 µM in experiment [2], 0.000256 µM in [4] and 0.000247 µM in experiment [6].

For the compound `Cc1cc(O)c2c(c1)C(C1c3cccc(O)c3C(=O)c3c(O)cc(C)cc31)c1cccc(O)c1C2=O` (configuration not stated), the TGI was 11.4 µM in [9]; 10.1 µM in experiment [1]; 0.855 µM in experiment [2]; 4.65 µM in experiment [3]; 11.8 µM in [4]; 12.5 µM in [10]. Further, the TGI in [6] is 12.3 µM; in experiment [7], 12.6 µM; in experiment [8] it was 1.78 µM.

Regarding `O=S(O)c1cc(Cl)c(O)c(Cl)c1`, the TGI in experiment [9], in experiment [1], in [2], in experiment [3], in experiment [4] and in [10] was over 100 µM each time. The TGI in experiment [5], in experiment [6], in [7] and in experiment [8] was over 100 µM each time.

Consider `CC(=O)OCC1OC(N=[N+]=[N-])C(OC(C)=O)C(OC(C)=O)C1OC1OC(COC(C)=O)C(OC(C)=O)C(OC(C)=O)C1OC(C)=O` (configuration not stated), for which the TGI in experiment [9] was over 100 µM; in experiment [1] it was over 100 µM; in [2], 60.8 µM; in [3], over 100 µM; in experiment [4] it was over 100 µM; in experiment [10] it was over 100 µM. Moreover, the TGI in [5], in [6], in experiment [7] and in [8] was over 100 µM in each case.

Take `O=C1C(=C([O-])c2ccccc2)C(=O)c2ccccc21.O=C1C(=C([O-])c2ccccc2)C(=O)c2ccccc21.[Ni+2]`: the GI50 was 34.6 µM in [9]; 54.7 µM in experiment [1]; 35.2 µM in experiment [2]; 37.4 µM in experiment [3]; 13.4 µM in [4]; 36.8 µM in experiment [5]. In addition, the GI50 was 34.5 µM in [6], 62.2 µM in experiment [7] and 27.2 µM in experiment [8]. In addition, the TGI in experiment [9], in experiment [1], in experiment [2], in experiment [3], in [4] and in experiment [5] was over 100 µM each time. The TGI in [6], in experiment [7] and in [8] was over 100 µM throughout.

Turning to `COc1ccc([I+]c2ccc(OC)cc2)cc1`, the GI50 in experiment [9] is 6.05 µM; in experiment [1], 4.98 µM; in [2], 14.9 µM; in experiment [3], 4.85 µM; in [4], over 60.8 µM; in experiment [10] it was 55.4 µM. In addition, the GI50 in experiment [5] was 29.9 µM; in experiment [6], 7.58 µM; in experiment [7], 20.6 µM. The TGI in experiment [9], in [1], in experiment [2], in [3], in experiment [4] and in experiment [10] was over 100 µM each time. Besides, the TGI in experiment [5], in [6], in experiment [7] and in [8] was over 100 µM each time.

With `Cn1c(=O)c2[nH]c(SC/C(=N/O)c3ccc(Br)cc3)nc2n(C)c1=O`, the GI50 in experiment [9] is 3.12 µM; in [1], 14.3 µM; in experiment [2] it was 2.04 µM; in experiment [3], 2.08 µM; in [10], 20.4 µM. Besides, the TGI was over 100 µM in experiment [9]; 57.1 µM in experiment [1]; 5.07 µM in experiment [2]; 4.75 µM in [3]; 64 µM in experiment [10].

For the compound `COc1cc2c[n+](C)c3c4cc(OC)c(OCc5ccccc5)cc4c(OCc4ccccc4)cc3c2cc1OC`, the TGI in [9] was 18 µM; in experiment [1] it was 72.4 µM; in experiment [2], 22.6 µM; in [3], 20.5 µM; in experiment [4], over 100 µM; in experiment [10] it was 14.2 µM. The TGI in experiment [5] was 10.4 µM; in experiment [6] it was 12.9 µM; in experiment [7], 20.2 µM; in experiment [8], over 100 µM.

For the compound `O=c1[nH]c(=O)n(C2CC(O)C(CO)O2)cc1Br` (configuration not stated), the TGI in [9], in [1], in experiment [2], in [3], in experiment [4] and in [10] was over 100 µM each time. In addition, the TGI in experiment [5], in [6], in experiment [7] and in experiment [8] was over 100 µM in each case.

As to `COc1cc(O)c(Cc2ccccc2O)c(O)c1C(=O)CCc1ccccc1`, the TGI in experiment [9] is 22.9 µM; in experiment [1], 22.5 µM; in [2] it was 19.7 µM; in experiment [3], 12 µM; in experiment [4], 21.8 µM; in [10], 10.5 µM. The TGI in experiment [5] is 19.1 µM; in [6], 14.5 µM; in [7], 27.2 µM; in experiment [8], 23.4 µM.

Turning to `COc1ccc2c3/c(=C\c4ccc(N(C)C)cc4)c4ccccc4n3[n+](C)c2c1`, the GI50 in [9] was 0.094 µM; in [1], 0.051 µM; in experiment [2], 0.578 µM; in [3] it was 0.0639 µM; in experiment [4], 0.472 µM; in experiment [10] it was 0.0944 µM. Also, the figures for the GI50 in experiment [5], in experiment [7] and in experiment [8] were under 0.0275 µM, 0.173 µM and 0.484 µM, respectively. For the same compound, the TGI in experiment [9] is over 100 µM; in experiment [1] it was 2.09 µM; in experiment [2], 4.18 µM; in experiment [3] it was 0.722 µM; in [4], 2.22 µM; in experiment [10] it was 27.9 µM. For the same compound, the TGI was 0.224 µM in experiment [5], over 100 µM in experiment [6], 2.27 µM in experiment [7] and 1.66 µM in experiment [8].

Regarding `COc1ccccc1C(=O)OCC1CCCN2CCCCC12` (configuration not stated), the TGI in [9] was 34.8 µM; in [1] it was 46.1 µM; in experiment [2], 63.4 µM; in experiment [3], over 100 µM; in experiment [10], over 100 µM; in experiment [5] it was over 100 µM. Also, the results for the TGI in experiment [6], in experiment [7] and in experiment [8] were 73.1 µM, 65.7 µM and over 100 µM, respectively.

As for `NC(=O)/N=C/c1c(O)c2ccccc2oc1=O`, the TGI in [9], in experiment [1], in [3], in [4], in experiment [10] and in [5] was over 100 µM in each case. Further, the TGI in [7] and in experiment [8] was over 100 µM each time.

Regarding `COC(=O)c1c(O)ccc2c1c1c(n2Cc2cccc(C)c2)C(=O)c2ccccc2C1`, the TGI in [9] is 67.1 µM; in [1], 36.8 µM; in experiment [3], over 75 µM; in experiment [4], over 75 µM; in experiment [10] it was 44.5 µM; in experiment [5], over 75 µM. Also, the TGI in experiment [6] is 66.1 µM; in experiment [7] it was 0.71 µM; in experiment [8], over 75 µM.
